Reference: PubChem BioAssay (NCI)
“And” between values parts separate entries of the source, which are not always exact repeats. Equal entries are not always repeated.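 A five-concentration, 48-hour dose response in 96-well plates underlies each endpoint, interpolated linearly between surrounding concentrations. GI50 marks 50% less growth. At the TGI there is no net growth.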

What was measured:
Assay in all cases: DTP human tumour cell line panel, 48 h
[1] = tested on: M14 melanoma
[2] = tested on: HOP-62 NSCLC
[3] = tested on: HCT-15 colon
[4] = tested on: OVCAR-5 ovarian
[5] = tested on: SK-MEL-2 melanoma
[6] = tested on: HCT-116 colon
[7] = tested on: SK-OV-3 ovarian
[8] = tested on: 786-0 renal
[9] = tested on: MCF7 breast
[10] = tested on: A498 renal
[11] = tested on: KM12 colon
[12] = tested on: HL-60(TB) leukemia
[13] = tested on: OVCAR-8 ovarian
[14] = tested on: SN12C renal
[15] = tested on: DU-145 prostate
[16] = tested on: MDA-MB-468 breast
[17] = tested on: RXF 393 renal
[18] = tested on: UACC-62 melanoma
[19] = tested on: MOLT-4 leukemia
[20] = tested on: U251 CNS
[21] = tested on: UACC-257 melanoma
[22] = tested on: TK-10 renal
[23] = tested on: IGROV1 ovarian
[24] = tested on: NCI-H23 lung
[25] = tested on: SR leukemia
[26] = tested on: SNB-19 CNS
[27] = tested on: PC-3 prostate
[28] = tested on: NCI-H522 lung
[29] = tested on: HCC-2998 colon
[30] = tested on: A549 NSCLC
[31] = tested on: SNB-75 CNS
[32] = tested on: SF-539 CNS
[33] = tested on: SF-295 CNS
[34] = tested on: NCI-H226 lung
[35] = tested on: MDA-MB-231 breast
[36] = tested on: OVCAR-3 ovarian
[37] = tested on: SK-MEL-28 melanoma
[38] = tested on: COLO 205 colon
[39] = tested on: LOX IMVI melanoma
[40] = tested on: SK-MEL-5 melanoma
[41] = tested on: NCI/ADR-RES ovarian
[42] = tested on: T-47D breast
[43] = tested on: BT-549 breast
[44] = tested on: K-562 leukemia
[45] = tested on: HOP-92 NSCLC
[46] = tested on: CCRF-CEM leukemia
[47] = tested on: MDA-MB-435
[48] = tested on: OVCAR-4 ovarian
[49] = tested on: MALME-3M melanoma
[50] = tested on: RPMI-8226 leukemia
[51] = tested on: EKVX NSCLC
[52] = tested on: NCI-H460 lung
[53] = tested on: HT29 colon
[54] = tested on: SF-268 CNS
[55] = tested on: HS 578T breast
[56] = tested on: ACHN renal

Nc1nn2c(-c3cc4cc(Br)ccc4oc3=O)ccnc2c1N=Nc1ccc(Br)cc1
GI50 [1]: 3060 nM | TGI [1]: > 100000 nM | GI50 [2]: 1990 nM | TGI [2]: 4160 nM | GI50 [3]: 2580 nM | TGI [3]: 8230 nM | GI50 [4]: 2110 nM | TGI [4]: 5210 nM | GI50 [5]: 3680 nM | TGI [5]: 17100 nM | GI50 [6]: 1750 nM | TGI [6]: 3440 nM | GI50 [7]: 2620 nM | TGI [7]: 6610 nM | GI50 [8]: 1760 nM | TGI [8]: 3350 nM | GI50 [9]: 2890 nM | TGI [9]: 10100 nM | GI50 [10]: 1810 nM | TGI [10]: 3920 nM | GI50 [11]: 3760 nM | TGI [11]: > 100000 nM | GI50 [12]: > 100000 nM | TGI [12]: > 100000 nM | GI50 [13]: 2810 nM | TGI [13]: 9790 nM | GI50 [14]: 1940 nM | TGI [14]: 3870 nM | GI50 [15]: 3240 nM | TGI [15]: > 100000 nM | GI50 [16]: 2040 nM | TGI [16]: 5470 nM | GI50 [17]: 2250 nM | TGI [17]: 5370 nM | GI50 [18]: 3240 nM | TGI [18]: > 100000 nM | GI50 [19]: > 100000 nM | TGI [19]: > 100000 nM | GI50 [20]: 2140 nM | TGI [20]: 5250 nM | GI50 [21]: 3060 nM | TGI [21]: > 100000 nM | GI50 [22]: 2340 nM | TGI [22]: 5080 nM | GI50 [23]: 2720 nM | TGI [23]: 8760 nM | GI50 [24]: 2060 nM | TGI [24]: 4400 nM | GI50 [25]: 5120 nM | TGI [25]: > 100000 nM | GI50 [26]: 2840 nM | TGI [26]: 10900 nM | GI50 [27]: 1990 nM | TGI [27]: 5090 nM | GI50 [28]: 2200 nM | TGI [28]: 6550 nM | GI50 [29]: 3740 nM | TGI [29]: > 100000 nM | GI50 [30]: 2420 nM | TGI [30]: 6860 nM | GI50 [31]: 1810 nM | TGI [31]: 4620 nM | GI50 [32]: 1730 nM | TGI [32]: 3130 nM | GI50 [33]: 1860 nM | TGI [33]: 4010 nM | GI50 [34]: 1960 nM | TGI [34]: 4580 nM | GI50 [35]: 1730 nM | TGI [35]: 3400 nM | GI50 [36]: 2330 nM | TGI [36]: 6370 nM | GI50 [37]: 2180 nM | TGI [37]: 4930 nM | GI50 [38]: 3340 nM | TGI [38]: > 100000 nM | GI50 [39]: 2090 nM | TGI [39]: 4460 nM | GI50 [40]: 3250 nM | TGI [40]: > 100000 nM | GI50 [41]: 2220 nM | TGI [41]: 5010 nM | GI50 [42]: 2290 nM | TGI [42]: 6800 nM | GI50 [43]: 2940 nM | TGI [43]: 8720 nM | GI50 [44]: 3280 nM | TGI [44]: > 100000 nM | GI50 [45]: 2000 nM | TGI [45]: 4610 nM

CN1CCN(C(=O)Oc2cc3c(c4ccccc24)[C@H](CCl)CN3C(=O)c2cc3cc(OCCCN4CCC4)ccc3[nH]2)[C@H]2CSSC[C@H]21
GI50 [1]: 15.9 nM and 14.2 nM | TGI [1]: 70 nM and 46.2 nM | GI50 [2]: 9.09 nM and 9.6 nM | TGI [2]: 33.2 nM and 45.3 nM | GI50 [3]: 13.1 nM and 11 nM | TGI [3]: 40.7 nM and 50.6 nM | GI50 [46]: 42 nM and 18.4 nM | GI50 [4]: 29 nM and 22.7 nM | TGI [4]: 360 nM and 86.1 nM | GI50 [5]: 28.5 nM and 31.3 nM | TGI [5]: 62.6 nM and 53.8 nM | GI50 [6]: 8.63 nM and 45.7 nM | TGI [6]: > 15300 nM | GI50 [7]: 23.5 nM and 29.9 nM | TGI [7]: 59.6 nM and 128 nM | GI50 [47]: 20.3 nM and 25.1 nM | TGI [47]: 47.9 nM and 55.4 nM | GI50 [48]: 43.3 nM and 73.5 nM | TGI [48]: 553 nM and 446 nM | GI50 [9]: 1.53 nM | TGI [9]: 1530 nM | GI50 [49]: 18.2 nM and 19.3 nM | TGI [49]: 39.6 nM and 40.9 nM | GI50 [11]: 46.2 nM and 90.4 nM | GI50 [12]: 49.8 nM and 28.5 nM | TGI [12]: 368 nM | GI50 [13]: 15.3 nM and 12.1 nM | GI50 [14]: 19.4 nM and 11.6 nM | TGI [14]: 459 nM and 222 nM | GI50 [15]: 4.29 nM and 5.32 nM | GI50 [16]: 5.3 nM | TGI [16]: 19.7 nM | GI50 [17]: 17.7 nM and 4.25 nM | TGI [17]: 37.9 nM and 14.5 nM | GI50 [18]: 10.5 nM and 4.24 nM | TGI [18]: 26.4 nM and 21.3 nM | GI50 [19]: 23.5 nM and 14.2 nM | TGI [19]: 324 nM | GI50 [20]: 18 nM and 3.56 nM | TGI [20]: 2300 nM | GI50 [21]: 27.3 nM and 34.4 nM | TGI [21]: 135 nM and 86.5 nM | GI50 [50]: 36 nM and 35.1 nM | GI50 [51]: 20.4 nM and 27.3 nM | TGI [51]: 59.6 nM and 70.7 nM | GI50 [24]: 6.68 nM and 4.34 nM | TGI [24]: 25.1 nM and 19.6 nM | GI50 [25]: 4.72 nM | GI50 [26]: 23.2 nM and 17.9 nM | TGI [26]: 2460 nM and 314 nM | GI50 [52]: 1.63 nM | TGI [52]: 268 nM | GI50 [27]: 18 nM and 34 nM | TGI [27]: > 15300 nM | GI50 [28]: 30.6 nM and 28.3 nM | TGI [28]: 154 nM and 75.8 nM | GI50 [29]: 16 nM and 22 nM | TGI [29]: 47.3 nM and 52.7 nM | GI50 [30]: 4.96 nM | TGI [30]: > 15300 nM | GI50 [53]: 19.7 nM | GI50 [31]: 26 nM | TGI [31]: 137 nM | GI50 [54]: 19.8 nM and 20.1 nM | TGI [54]: 84.4 nM and 173 nM | GI50 [32]: 16.8 nM and 22.4 nM | TGI [32]: 40.6 nM and 55.4 nM | GI50 [33]: 10.6 nM and 2.14 nM | TGI [33]: 52 nM and 5.86 nM | GI50 [34]: 31.8 nM | TGI [34]: 1150 nM | GI50 [35]: 32.1 nM and 37.8 nM | TGI [35]: 92.9 nM and 83.7 nM | GI50 [36]: 28.1 nM and 50.5 nM | TGI [36]: 88.3 nM and 292 nM | GI50 [37]: 18.7 nM | TGI [37]: 40 nM | GI50 [55]: 100 nM and 141 nM | TGI [55]: 591 nM and 810 nM | GI50 [38]: 25.5 nM and 21.7 nM | TGI [38]: 106 nM and 50.4 nM | GI50 [39]: 3.15 nM | TGI [39]: 24.8 nM | GI50 [41]: 13.5 nM | TGI [41]: 53.6 nM | GI50 [42]: 28.6 nM | TGI [42]: 598 nM | GI50 [43]: 19.2 nM and 54 nM | TGI [43]: 74.1 nM and 348 nM | GI50 [44]: 24.4 nM and 17.2 nM | TGI [44]: > 15300 nM | GI50 [56]: 2.5 nM | TGI [56]: 8.71 nM | GI50 [45]: 67.1 nM
